Assay results taken from patent US10301280B2 (Plexxikon Inc., priority 2012, dated 2019).

Tests used:
c-kit mutant D816V = c-kit mutant D816V (Homo sapiens (Human), UniProt P10721, D816V/DEL694-753); experiment: c-Kit mutant D816V biochemical assay (AlphaScreen); details: c-kit D816V biochemical inhibitory activity
How it was run: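 His-tagged c-Kit D816V kinase domain (551-934, Δ694-753, E. coli) phosphorylating 30 nM biotin-(E4Y)10 at 10 μM ATP in HEPES pH 7.2 with Mg/Mn, 5% DMSO, 30 min at room temperature. PY20-acceptor/streptavidin-donor AlphaScreen detection after EDTA stop. IC50 from 8-point 1:3 titration.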

[1] = tested on: BaF3-FL KIT D816V or BaF3-FL KIT V560G/D816V cell line; experiment: Cell-based assays of c-Kit mutant kinase activity (cell growth, ATPlite); details: at least one of the c-kit cell assays of Example 26
How it was run: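 IC50 derived from ATP-content luminescence (ATPlite) after three-day compound exposure at 37° C., 5% CO2. Cells: BaF3 rendered growth-dependent on full-length human KIT D816V or V560G/D816V, 1×10^4 per well, RPMI plus 10% FBS; 8 points, 1:3 steps, maximum 10 μM final, 0.2% DMSO.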

c-kit mutant D816V, sequence (P10721 other isoform, or with tags, fused parts or gaps D816V/del 694-753): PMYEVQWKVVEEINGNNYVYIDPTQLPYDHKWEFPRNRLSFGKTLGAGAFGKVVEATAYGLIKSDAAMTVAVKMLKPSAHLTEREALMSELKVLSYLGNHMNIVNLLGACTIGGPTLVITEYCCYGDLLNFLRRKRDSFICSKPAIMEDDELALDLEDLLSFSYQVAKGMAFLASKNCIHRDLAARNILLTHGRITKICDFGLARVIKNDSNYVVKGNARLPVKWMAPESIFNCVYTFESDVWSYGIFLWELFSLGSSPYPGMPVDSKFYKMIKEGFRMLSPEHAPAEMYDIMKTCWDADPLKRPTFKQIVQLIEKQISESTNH

Compound | IC50 (c-kit mutant D816V) [µM] | IC50 [1] [µM]
Cc1n[nH]c(C(=O)Nc2cnc3[nH]c(-c4ccc(F)cc4OC(F)F)cc3c2)c1C [P-2268, N-[2-[2-(difluoromethoxy)-4-fluoro-phenyl]-1H-pyrrolo[2,3-b]pyridin-5-yl]-3,4-dimethyl-1H-pyrazole-5-carboxamide] | 0.0001 to 1 | < 10
Cc1n[nH]c(C(=O)Nc2cnc3[nH]c(-c4cncc(C#N)c4)cc3c2)c1C [P-2270, N-[2-(5-cyano-3-pyridyl)-1H-pyrrolo[2,3-b]pyridin-5-yl]-3,4-dimethyl-1H-pyrazole-5-carboxamide] | 0.0001 to 1 | < 10
Cc1n[nH]c(C(=O)Nc2cnc3[nH]c(C4=CCOCC4)cc3c2)c1C [P-2271, N-[2-(3,6-dihydro-2H-pyran-4-yl)-1H-pyrrolo[2,3-b]pyridin-5-yl]-3,4-dimethyl-1H-pyrazole-5-carboxamide] | 0.0001 to 1 | < 10
Cc1n[nH]c(C(=O)Nc2cnc3[nH]c(-c4cnccc4C(N)=O)cc3c2)c1C [P-2272, 3-[5-[(3,4-dimethyl-1H-pyrazole-5-carbonyl)amino]-1H-pyrrolo[2,3-b]pyridin-2-yl]pyridine-4-carboxamide] | 0.0001 to 1 | < 10
Cc1n[nH]c(C(=O)Nc2cnc3[nH]c(-c4cccc5c4OCC5)cc3c2)c1C [P-2273, N-[2-(2,3-dihydrobenzofuran-7-yl)-1H-pyrrolo[2,3-b]pyridin-5-yl]-3,4-dimethyl-H-pyrazole-5-carboxamide] | 0.0001 to 1 | < 10
Cc1n[nH]c(C(=O)Nc2cnc3[nH]c(-c4cccc(N5CCNCC5)c4)cc3c2)c1C [P-2274, 3,4-dimethyl-N-[2-(3-piperazin-1-ylphenyl)-1H-pyrrolo[2,3-b]pyridin-5-yl]-1H-pyrazole-5-carboxamide] | 0.0001 to 1 | < 10
Cc1cc(Cl)ccc1-c1cc2cc(NC(=O)c3[nH]nc(C)c3C)cnc2[nH]1 [P-2277, N-[2-(4-chloro-2-methyl-phenyl)-1H-pyrrolo[2,3-b]pyridin-5-yl]-3,4-dimethyl-1H-pyrazole-5-carboxamide] | 0.0001 to 1 | < 10
Cc1n[nH]c(C(=O)Nc2cnc3[nH]c(-c4ccncc4Cl)cc3c2)c1C [P-2278, N-[2-(3-chloro-4-pyridyl)-H-pyrrolo[2,3-b]pyridin-5-yl]-3,4-dimethyl-1H-pyrazole-5-carboxamide] | 0.0001 to 1 | < 10
Cc1n[nH]c(C(=O)Nc2cnc3[nH]c(-c4ccc(F)nc4F)cc3c2)c1C [P-2280, N-[2-(2,6-difluoro-3-pyridyl)-1H-pyrrolo[2,3-b]pyridin-5-yl]-3,4-dimethyl-1H-pyrazole-5-carboxamide] | 0.0001 to 1 | < 10
Cc1n[nH]c(C(=O)Nc2cnc3[nH]c(-c4cccc5c4OC(F)(F)O5)cc3c2)c1C [P-2281, N-[2-(2,2-difluoro-1,3-benzodioxol-4-yl)-1H-pyrrolo[2,3-b]pyridin-5-yl]-3,4-dimethyl-1H-pyrazole-5-carboxamide] | 0.0001 to 1 | < 10
Cc1cc(-c2cc3cc(NC(=O)c4[nH]nc(C)c4C)cnc3[nH]2)cnc1C [P-2282, N-[2-(5,6-dimethyl-3-pyridyl)-1H-pyrrolo[2,3-b]pyridin-5-yl]-3,4-dimethyl-1H-pyrazole-5-carboxamide] | 0.0001 to 1 | < 10
COc1ccc(-c2cc3cc(NC(=O)c4[nH]nc(C)c4C)cnc3[nH]2)c(C)c1C [P-2284, N-[2-(4-methoxy-2,3-dimethyl-phenyl)-1H-pyrrolo[2,3-b]pyridin-5-yl]-3,4-dimethyl-1H-pyrazole-5-carboxamide] | 0.0001 to 1 | < 10
Cc1nn(C2CN(C(=O)OC(C)(C)C)C2)cc1-c1cc2cc(NC(=O)c3[nH]nc(C)c3C)cnc2[nH]1 [P-2285, tert-butyl 3-[4-[5-[(3,4-dimethyl-1H-pyrazole-5-carbonyl)amino]-1H-pyrrolo[2,3-b]pyridin-2-yl]-3-methyl-pyrazol-1-yl]azetidine-1-carboxylate] | 0.0001 to 1 | < 10
Cc1nn(C2CNC2)cc1-c1cc2cc(NC(=O)c3[nH]nc(C)c3C)cnc2[nH]1 [P-2286, N-[2-[1-(azetidin-3-yl)-3-methyl-pyrazol-4-yl]-1H-pyrrolo[2,3-b]pyridin-5-yl]-3,4-dimethyl-1H-pyrazole-5-carboxamide] | 0.0001 to 1 | < 10
O=C(Nc1cnc2[nH]c(-c3ccccc3)cc2c1)c1cccc2n[nH]cc12 [P-2289, N-(2-phenyl-1H-pyrrolo[2,3-b]pyridin-5-yl)-2H-indazole-4-carboxamide] | 1 to 10 | < 10
COC(=O)c1cccc(C(=O)Nc2cnc3[nH]c(-c4ccccc4)cc3c2)c1 [P-2290, methyl 3-[(2-phenyl-1H-pyrrolo[2,3-b]pyridin-5-yl)carbamoyl]benzoate] | 10 to 200 | < 10
O=C(O)c1cccc(C(=O)Nc2cnc3[nH]c(-c4ccccc4)cc3c2)c1 [P-2291, 3-[(2-phenyl-1H-pyrrolo[2,3-b]pyridin-5-yl)carbamoyl]benzoic acid] | 10 to 200 | < 10
Cc1n[nH]c(C(=O)Nc2cnc3[nH]c(-c4ccc(C(=O)O)c(F)c4)cc3c2)c1C [P-2292, 4-[5-[(3,4-dimethyl-1H-pyrazole-5-carbonyl)amino]-1H-pyrrolo[2,3-b]pyridin-2-yl]-2-fluoro-benzoic acid] | 0.0001 to 1 | < 10
Cc1n[nH]c(C(=O)Nc2cnc3[nH]c(-c4cccc(CC(=O)O)c4)cc3c2)c1C [P-2293, 2-[3-[5-[(3,4-dimethyl-1H-pyrazole-5-carbonyl)amino]-1H-pyrrolo[2,3-b]pyridin-2-yl]phenyl]acetic acid] | 0.0001 to 1 | < 10
Cc1n[nH]c(C(=O)Nc2cnc3[nH]c(-c4ccc(C5(C(=O)O)CC5)cc4)cc3c2)c1C [P-2294, 1-[4-[5-[(3,4-dimethyl-1H-pyrazole-5-carbonyl)amino]-1H-pyrrolo[2,3-b]pyridin-2-yl]phenyl]cyclopropanecarboxylic acid] | 0.0001 to 1 | < 10
Cc1n[nH]c(C(=O)Nc2cnc3[nH]c(-c4ccc(CC(=O)O)cc4)cc3c2)c1C [P-2295, 2-[4-[5-[(3,4-dimethyl-1H-pyrazole-5-carbonyl)amino]-1H-pyrrolo[2,3-b]pyridin-2-yl]phenyl]acetic acid] | 0.0001 to 1 | < 10
Cc1cc(-c2cc3cc(NC(=O)c4[nH]nc(C)c4C)cnc3[nH]2)ccc1C(=O)O [P-2296, 4-[5-[(3,4-dimethyl-1H-pyrazole-5-carbonyl)amino]-1H-pyrrolo[2,3-b]pyridin-2-yl]-2-methyl-benzoic acid] | 0.0001 to 1 | < 10
Cc1n[nH]c(C(=O)Nc2cnc3[nH]c(-c4cccc(C(=O)O)c4C)cc3c2)c1C [P-2297, 3-[5-[(3,4-dimethyl-1H-pyrazole-5-carbonyl)amino]-1H-pyrrolo[2,3-b]pyridin-2-yl]-2-methyl-benzoic acid] | 0.0001 to 1 | < 10
